According to US11384055B2 (BIOMARIN PHARMACEUTICAL INC., priority 2017, dated 2022):
pIC50: −log10 of the molar value.

biological target: T1, Human GO (Homo sapiens, UniProt Q9UJM8); assay: GO enzymatic assay (coupled fluorescence/HRP assay, glycolate substrate); type: biochemical; conditions: not given
T1 construct: purchased Novus Biologicals NBP1-72412
T1 sequence (Q9UJM8 1-370): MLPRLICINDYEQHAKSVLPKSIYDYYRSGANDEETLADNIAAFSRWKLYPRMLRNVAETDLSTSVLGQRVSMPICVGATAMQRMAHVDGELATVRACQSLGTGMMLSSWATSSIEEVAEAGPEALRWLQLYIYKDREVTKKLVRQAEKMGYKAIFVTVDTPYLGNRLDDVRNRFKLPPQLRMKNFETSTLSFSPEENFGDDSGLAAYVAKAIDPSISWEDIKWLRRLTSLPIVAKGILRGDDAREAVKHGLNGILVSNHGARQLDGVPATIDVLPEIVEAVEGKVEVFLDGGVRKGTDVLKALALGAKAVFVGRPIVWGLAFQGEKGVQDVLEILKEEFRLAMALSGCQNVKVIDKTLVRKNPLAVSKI
Summary of the method: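 Coupled HRP/fluorescence read-out of glycolate oxidation by human GO in 50 mM potassium phosphate buffer (pH 7). Inhibitors added across a concentration range.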

Compound | pIC50
CS(=O)(=O)c1ccc(-c2ccc(Oc3[nH]nnc3C(=O)O)cc2)cc1 [Compound 401, 4-((4′-(methylsulfonyl)-[1,1′-biphenyl]-4-yl)oxy)-1H-1,2,3-triazole-5-carboxylic acid 2,2,2-trifluoroacetate] | > 7.00

same assay, conditions: Table 2; read-out: Range (range of IC50 values calculated from the enzymatic assays)

Compound | pIC50
O=C(O)c1[nH]nnc1OC1CCN(c2cc(Cl)ccc2OC(F)(F)F)CC1 [Compound 367, 4-((1-(5-chloro-2-(trifluoromethoxy)phenyl)piperidin-4-yl)oxy)-1H-1,2,3-triazole-5-carboxylic acid 2,2,2-trifluoroacetate] | > 7.00
O=C(O)c1[nH]nnc1O[C@H]1CC[C@@H](c2ccc(N3CCC(F)(F)CC3)cc2)CC1 [Compound 368, 4-(((cis)-4-(4-(4,4-difluoropiperidin-1-yl)phenyl)cyclohexyl)oxy)-1H-1,2,3-triazole-5-carboxylic acid 2,2,2-trifluoroacetate] | > 7.00
O=C(O)c1[nH]nnc1OCC1C2CN(c3ccc(Cl)c(Cl)c3)CC12 (stereo not drawn) [Compound 369, 4-((3-(3,4-dichlorophenyl)-3-azabicyclo[3.1.0]hexan-6-yl)methoxy)-1H-1,2,3-triazole-5-carboxylic acid] | > 7.00
CCN(CC)C(=O)OCOC(=O)c1[nH]nnc1O[C@H]1CC[C@H](c2ccc(OC(F)(F)F)cc2)CC1 [Compound 370, ((diethylcarbamoyl)oxy)methyl 4-(((trans)-4-(4-(trifluoromethoxy)phenyl)cyclohexyl)oxy)-1H-1,2,3-triazole-5-carboxylate] | < 5.00
O=C(O)c1[nH]nnc1SCC1C2CN(c3ccc(Cl)c(Cl)c3)CC12 (stereo not drawn) [Compound 373, 4-(((3-(3,4-dichlorophenyl)-3-azabicyclo[3.1.0]hexan-6-yl)methyl)thio)-1H-1,2,3-triazole-5-carboxylic acid] | > 7.00
O=C(O)c1[nH]nnc1Oc1cccc(OC2CCCC2)c1 [Compound 375, 4-(3-(cyclopentyloxy)phenoxy)-1H-1,2,3-triazole-5-carboxylic acid 2,2,2-trifluoroacetate] | > 7.00

same assay, conditions: Table 3; read-out: Range (range of IC50 values calculated from the enzymatic assays)

Compound | pIC50
O=C(O)c1[nH]nnc1OC(Cc1ccc(-c2ccc(OC(F)(F)F)cc2)cc1)Cc1ccc(-c2ccc(OC(F)(F)F)cc2)cc1 [Compound 366, 4-((1,3-bis(4′-(trifluoromethoxy)-[1,1′-biphenyl]-4-yl)propan-2-yl)oxy)-1H-1,2,3-triazole-5-carboxylic acid] | 6.00 to 7.00
O=C(O)c1[nH]nnc1CCN(Cc1ccc(Cl)cc1)Cc1ccc(Cl)cc1 [Compound 372, 4-(2-(bis(4-chlorobenzyl)amino)ethyl)-1H-1,2,3-triazole-5-carboxylic acid 2,2,2-trifluoroacetate] | 6.00 to 7.00
O=C(O)c1[nH]nnc1CCN(Cc1ccc(Cl)cc1)Cc1ccc(-c2ccc(OC(F)(F)F)cc2)cc1 [Compound 374, 4-(2-((4-chlorobenzyl)((4′-(trifluoromethoxy)-[1,1′-biphenyl]-4-yl)methyl)amino)ethyl)-1H-1,2,3-triazole-5-carboxylic acid 2,2,2-trifluoroacetate] | 6.00 to 7.00

same assay, conditions: Table 4; read-out: Range (range of IC50 values calculated from the enzymatic assays)

Compound | pIC50
O=C(O)c1[nH]nnc1OC(c1ccccc1)C(O)c1ccc(Cl)cc1 (stereo not drawn) [Compound 378, 4-(2-(4-chlorophenyl)-2-hydroxy-1-phenylethoxy)-1H-1,2,3-triazole-5-carboxylic acid] | 6.00 to 7.00
N#Cc1ccc(-c2ccc(Sc3nn[nH]c3C(=O)O)cc2)cc1 [Compound 389, 4-((4′-cyano-[1,1′-biphenyl]-4-yl)thio)-1H-1,2,3-triazole-5-carboxylic acid 2,2,2-trifluoroacetate] | > 7.00
CC(OC(=O)c1[nH]nnc1O[C@H]1CC[C@H](c2ccc(OC(F)(F)F)cc2)CC1)OC(=O)C1CCCCC1 (stereo partly drawn) [Compound 391, 1-((cyclohexanecarbonyl)oxy)ethyl 4-(((trans)-4-(4-(trifluoromethoxy)phenyl)cyclohexyl)oxy)-1H-1,2,3-triazole-5-carboxylate] | 6.00 to 7.00
CCC(OC(=O)c1[nH]nnc1O[C@H]1CC[C@H](c2ccc(OC(F)(F)F)cc2)CC1)OC(=O)C1CCCCC1 (stereo partly drawn) [Compound 392, 1-((cyclohexanecarbonyl)oxy)propyl 4-(((trans)-4-(4-(trifluoromethoxy)phenyl)cyclohexyl)oxy)-1H-1,2,3-triazole-5-carboxylate] | 6.00 to 7.00
O=C(O)c1[nH]nnc1O[C@H]1CC[C@H](c2cc(Cl)ccc2OC(F)(F)F)CC1 [Compound 393, 4-(((trans)-4-(5-chloro-2-(trifluoromethoxy)phenyl)cyclohexyl)oxy)-1H-1,2,3-triazole-5-carboxylic acid] | > 7.00
O=C(O)c1[nH]nnc1Oc1ccc(F)c(OCc2ccc(OC(F)(F)F)cc2)c1 [Compound 400, 4-(4-fluoro-3-((4-(trifluoromethoxy)benzyl)oxy)phenoxy)-1H-1,2,3-triazole-5-carboxylic acid 2,2,2-trifluoroacetate] | > 7.00
O=C(O)c1[nH]nnc1SC1CCN(c2cc(OC(F)(F)F)ccc2Cl)CC1 [Compound 402, 4-((1-(2-chloro-5-(trifluoromethoxy)phenyl)piperidin-4-yl)thio)-1H-1,2,3-triazole-5-carboxylic acid] | > 7.00
O=C(O)c1[nH]nnc1Oc1ccc(-c2ccc(N3CCCCC3)cc2)c(Cl)c1 [Compound 406, 4-((2-chloro-4′-(piperidin-1-yl)-[1,1′-biphenyl]-4-yl)oxy)-1H-1,2,3-triazole-5-carboxylic acid 2,2,2-trifluoroacetate] | > 7.00
O=C(O)c1[nH]nnc1Oc1ccc(-c2ccc(N3CCCCC3)cc2Cl)cc1 [Compound 407, 4-((2′-chloro-4′-(piperidin-1-yl)-[1,1′-biphenyl]-4-yl)oxy)-1H-1,2,3-triazole-5-carboxylic acid] | > 7.00
O=C(O)c1[nH]nnc1Oc1ccc(Cl)c(OCc2ccc(OC(F)(F)F)cc2)c1 [Compound 408, 4-(4-chloro-3-((4-(trifluoromethoxy)benzyl)oxy)phenoxy)-1H-1,2,3-triazole-5-carboxylic acid] | > 7.00
NS(=O)(=O)c1ccc(-c2ccc(Oc3nn[nH]c3C(=O)O)cc2)cc1 [Compound 413, 4-((4′-sulfamoyl-[1,1′-biphenyl]-4-yl)oxy)-1H-1,2,3-triazole-5-carboxylic acid] | > 7.00
O=C(O)c1[nH]nnc1Oc1ccc(Cl)c(OCc2ccc(C(F)(F)F)cc2)c1 [Compound 415, 4-(4-chloro-3-((4-(trifluoromethyl)benzyl)oxy)phenoxy)-1H-1,2,3-triazole-5-carboxylic acid] | > 7.00
N#Cc1ccc(Oc2nn[nH]c2C(=O)O)cc1OCc1ccc(OC(F)(F)F)cc1 [Compound 421, 4-(4-cyano-3-((4-(trifluoromethoxy)benzyl)oxy)phenoxy)-1H-1,2,3-triazole-5-carboxylic acid] | > 7.00
O=C(O)c1[nH]nnc1O[C@H]1C[C@@H]2CN(c3ccc(Cl)c(Cl)c3)C[C@@H]2C1 [Compound 427, 4-(((3aR,5s,6aS)-2-(3,4-dichlorophenyl)octahydrocyclopenta[c]pyrrol-5-yl)oxy)-1H-1,2,3-triazole-5-carboxylic acid] | > 7.00
O=C(O)c1[nH]nnc1S[C@H]1C[C@@H]2CN(c3ccc(Cl)c(Cl)c3)C[C@@H]2C1 [Compound 428, 4-(((3aR,5s,6aS)-2-(3,4-dichlorophenyl)octahydrocyclopenta[c]pyrrol-5-yl)thio)-1H-1,2,3-triazole-5-carboxylic acid] | > 7.00
O=C(O)c1[nH]nnc1OC1CCN(c2cc(OC(F)(F)F)ccc2Cl)CC1 [Compound 429, 4-((1-(2-chloro-5-(trifluoromethoxy)phenyl)piperidin-4-yl)oxy)-1H-1,2,3-triazole-5-carboxylic acid] | > 7.00
O=C(O)c1[nH]nnc1CSC1CCC2(CCCC2)CC1 [Compound 435, 4-((spiro[4.5]decan-8-ylthio)methyl)-1H-1,2,3-triazole-5-carboxylic acid] | > 7.00
N#CC1(c2ccc(OC(F)(F)F)cc2)CCC(Oc2nn[nH]c2C(=O)O)CC1 (stereo not drawn) [Compound 437, 4-((4-cyano-4-(4-(trifluoromethoxy)phenyl)cyclohexyl)oxy)-1H-1,2,3-triazole-5-carboxylic acid] | > 7.00
COC1(c2ccc(OC(F)(F)F)cc2)CC(Oc2nn[nH]c2C(=O)O)C1 (stereo not drawn) [Compound 440, 4-(3-methoxy-3-(4-(trifluoromethoxy)phenyl)cyclobutoxy)-1H-1,2,3-triazole-5-carboxylic acid] | 6.00 to 7.00
O=C(O)c1[nH]nnc1S[C@H]1CC[C@@H](c2ccc(N3CCCCC3)c(Cl)c2)CC1 [Compound 442-1, 4-(((cis)-4-(3-chloro-4-(piperidin-1-yl)phenyl)cyclohexyl)thio)-1H-1,2,3-triazole-5-carboxylic acid 2,2,2-trifluoroacetate] | > 7.00
O=C(O)c1[nH]nnc1S[C@H]1CC[C@H](c2ccc(N3CCCCC3)c(Cl)c2)CC1 [Compound 442-2, 4-(((trans)-4-(3-chloro-4-(piperidin-1-yl)phenyl)cyclohexyl)thio)-1H-1,2,3-triazole-5-carboxylic acid 2,2,2-trifluoroacetate] | > 7.00

same assay, conditions: Table 5; GO enzymatic assay; read-out: Range (range of IC50 values calculated from the enzymatic assays)

Compound | pIC50
O=C(O)c1[nH]nnc1OC(c1ccccc1)C(O)c1ccc(Cl)cc1 (stereo not drawn) [Compound 378, 4-(2-(4-chlorophenyl)-2-hydroxy-1-phenylethoxy)-1H-1,2,3-triazole-5-carboxylic acid] | 6.00 to 7.00
O=C(O)c1[nH]nnc1OC(Cc1ccc(Cl)cc1)Cc1ccc(-c2ccc(OC(F)(F)F)cc2)cc1 (stereo not drawn) [Compound 385, 4-((1-(4-chlorophenyl)-3-(4′-(trifluoromethoxy)-[1,1′-biphenyl]-4-yl)propan-2-yl)oxy)-1H-1,2,3-triazole-5-carboxylic acid 2,2,2-trifluoroacetate] | 6.00 to 7.00
